This is an account of results in publication PMC11356571, “The Comparative Metabolism of a Novel Hepatocellular Carcinoma Therapeutic Agent, 2,3-Diamino-N-(4-(benzo[d]thiazol-2-yl)phenyl)propanamide, in Human and Animal Hepatocytes” (Metabolites, 2024).

For one data set, the target named is T1, CES1c (Homo sapiens, UniProt P23141).
T1 construct: purchased Corning Life Sciences (Woburn, MA, USA)
T1 sequence (P23141 18-566 isoform P23141-3 limits assumed): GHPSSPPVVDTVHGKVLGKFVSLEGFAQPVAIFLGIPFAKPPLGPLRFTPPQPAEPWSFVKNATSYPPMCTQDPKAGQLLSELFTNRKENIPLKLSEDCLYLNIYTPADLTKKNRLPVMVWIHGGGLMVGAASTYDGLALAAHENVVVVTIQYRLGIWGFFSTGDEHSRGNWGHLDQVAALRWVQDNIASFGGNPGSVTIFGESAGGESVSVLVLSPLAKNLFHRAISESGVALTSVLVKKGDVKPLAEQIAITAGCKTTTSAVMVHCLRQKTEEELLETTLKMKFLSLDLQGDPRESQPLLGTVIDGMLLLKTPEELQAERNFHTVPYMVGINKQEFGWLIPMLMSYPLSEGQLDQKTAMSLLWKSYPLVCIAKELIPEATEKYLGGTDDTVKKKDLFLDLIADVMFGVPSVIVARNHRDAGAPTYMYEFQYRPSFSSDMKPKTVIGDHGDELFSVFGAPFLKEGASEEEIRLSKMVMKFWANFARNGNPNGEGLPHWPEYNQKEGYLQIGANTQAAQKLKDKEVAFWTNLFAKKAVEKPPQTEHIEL
As to the kind of experiment: Incubation with human recombinant CES1c. Format: in vitro ADME. The following applies: 60 min at 37 °C, ETN101 10 μM or M1 1 μM. How it is done:
To screen for CES enzymes responsible for the hydrolysis of ETN101 or M1, 50 μL of reaction mixtures containing human cDNA-expressed CES enzymes (CES1b, CES1c, and CES2) at the concentration of 1 mg/mL, 10 μM ETN101, or 1 μM M1 in 0.1 M potassium phosphate buffer were incubated at 37 °C for 0 min or 60 min in triplicate. The reactions were quenched by adding 50 μL of ice-cold acetonitrile containing the internal standard (camptothecin, 10 μg/mL). Following centrifugation at 13,000 rpm for 5 min, a 2 μL aliquot of the supernatant was injected into the LC-MS/MS system. The reliability of the analysis was confirmed by incorporating three different levels of quality control samples at the beginning and end of each analytical batch.
For enzyme characterization, an Agilent 6460 triple quadrupole mass spectrometer coupled with a 1260 HPLC system (Agilent Technologies, Santa Clara, CA, USA) and a Kinetex Halo® C18 column (2.7 μm, 2.1 × 50 mm, Advanced Material Technology, Wilmington, DE, USA) were used for chromatographic separation. The mobile phases comprised 0.1% (v/v) formic acid in water (mobile phase A) and 0.1% formic acid (v/v) in acetonitrile (mobile phase B). […] ETN101, M1, and M2 were detected via MRM using ESI in the positive mode. […]

The next data set has as its target T2, CES1b (Homo sapiens, UniProt P23141).
T2 construct: purchased Corning Life Sciences (Woburn, MA, USA)
T2 sequence (P23141 18-567): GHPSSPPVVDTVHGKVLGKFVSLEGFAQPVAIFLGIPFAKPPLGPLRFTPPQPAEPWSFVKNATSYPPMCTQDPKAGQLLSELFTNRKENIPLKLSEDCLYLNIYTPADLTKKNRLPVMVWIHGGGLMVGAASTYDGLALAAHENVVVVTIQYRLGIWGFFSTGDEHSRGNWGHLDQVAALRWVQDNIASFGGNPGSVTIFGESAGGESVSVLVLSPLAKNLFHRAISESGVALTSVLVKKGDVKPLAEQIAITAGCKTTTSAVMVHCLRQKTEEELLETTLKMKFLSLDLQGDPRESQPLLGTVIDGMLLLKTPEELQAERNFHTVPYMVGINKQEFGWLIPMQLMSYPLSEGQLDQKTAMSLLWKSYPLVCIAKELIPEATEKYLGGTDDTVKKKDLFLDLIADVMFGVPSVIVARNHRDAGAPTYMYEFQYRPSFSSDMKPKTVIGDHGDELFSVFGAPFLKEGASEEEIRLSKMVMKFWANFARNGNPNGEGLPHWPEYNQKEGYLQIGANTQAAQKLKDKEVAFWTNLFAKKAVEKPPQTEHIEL
As to the kind of experiment: Incubation with human recombinant CES1b. Format: in vitro ADME. The note with it: 60 min at 37 °C, ETN101 10 μM or M1 1 μM. As to the method: To screen for CES enzymes responsible for the hydrolysis of ETN101 or M1, 50 μL of reaction mixtures containing human cDNA-expressed CES enzymes (CES1b, CES1c, and CES2) at the concentration of 1 mg/mL, 10 μM ETN101, or 1 μM M1 in 0.1 M potassium phosphate buffer were incubated at 37 °C for 0 min or 60 min in triplicate. The reactions were quenched by adding 50 μL of ice-cold acetonitrile containing the internal standard (camptothecin, 10 μg/mL). Following centrifugation at 13,000 rpm for 5 min, a 2 μL aliquot of the supernatant was injected into the LC-MS/MS system.
The mobile phases comprised 0.1% (v/v) formic acid in water (mobile phase A) and 0.1% formic acid (v/v) in acetonitrile (mobile phase B). […] The column and auto-sampler were maintained at 40 °C and 4 °C, respectively. ETN101, M1, and M2 were detected via MRM using ESI in the positive mode. […] Mass Hunter software (Agilent Technologies) was used to control the LC-MS/MS instrument and for data processing.

Consider `Nc1ccc(-c2nc3ccccc3s2)cc1` [M1, 2-(4-aminophenyl)benzothiazole], for which the Percentage remaining at CES1c was determined as 122.7%; at CES1b, 99.6%.

Take `NCC(N)C(=O)Nc1ccc(-c2nc3ccccc3s2)cc1` (stereo not shown) [ETN101, 2,3-diamino-N-(4-(benzo[d]thiazol-2-yl)phenyl)propanamide]: the Percentage remaining on CES1c came to 107.3%; at CES1b, 98.6%.
